{"source": "BigSolDB 2.1", "data": [{"smiles": "COc1ccc2nc(SCc3ncc(C)c(OC)c3C)[nH]c2c1", "values": [{"measurement": "solubility (mole fraction)", "setting": "in ethanol, 277.65 K", "value": 0.0029}, {"measurement": "solubility (mole fraction)", "setting": "in ethanol, 282.65 K", "value": 0.00371}, {"measurement": "solubility (mole fraction)", "setting": "in ethanol, 288.15 K", "value": 0.00483}, {"measurement": "solubility (mole fraction)", "setting": "in ethanol, 293.15 K", "value": 0.00614}, {"measurement": "solubility (mole fraction)", "setting": "in ethanol, 298.05 K", "value": 0.00773}, {"measurement": "solubility (mole fraction)", "setting": "in ethanol, 302.15 K", "value": 0.00935}, {"measurement": "solubility (mole fraction)", "setting": "in ethanol, 307.65 K", "value": 0.012}, {"measurement": "solubility (mole fraction)", "setting": "in ethanol, 313.15 K", "value": 0.0155}, {"measurement": "solubility (mole fraction)", "setting": "in ethanol, 317.65 K", "value": 0.0189}, {"measurement": "solubility (mole fraction)", "setting": "in ethanol, 322.15 K", "value": 0.0231}, {"measurement": "solubility (mole fraction)", "setting": "in ethanol, 327.65 K", "value": 0.0293}, {"measurement": "solubility (mole fraction)", "setting": "in ethanol, 333.15 K", "value": 0.0372}, {"measurement": "solubility (mole fraction)", "setting": "in ethyl acetate, 277.65 K", "value": 0.0117}, {"measurement": "solubility (mole fraction)", "setting": "in ethyl acetate, 282.65 K", "value": 0.0168}, {"measurement": "solubility (mole fraction)", "setting": "in ethyl acetate, 288.15 K", "value": 0.0244}, {"measurement": "solubility (mole fraction)", "setting": "in ethyl acetate, 293.15 K", "value": 0.0337}, {"measurement": "solubility (mole fraction)", "setting": "in ethyl acetate, 298.05 K", "value": 0.0455}, {"measurement": "solubility (mole fraction)", "setting": "in ethyl acetate, 302.15 K", "value": 0.0577}, {"measurement": "solubility (mole fraction)", "setting": "in ethyl acetate, 307.65 K", "value": 0.0781}, {"measurement": "solubility (mole fraction)", "setting": "in ethyl acetate, 313.15 K", "value": 0.104}, {"measurement": "solubility (mole fraction)", "setting": "in ethyl acetate, 317.65 K", "value": 0.129}, {"measurement": "solubility (mole fraction)", "setting": "in ethyl acetate, 322.15 K", "value": 0.16}, {"measurement": "solubility (mole fraction)", "setting": "in ethyl acetate, 327.65 K", "value": 0.203}, {"measurement": "solubility (mole fraction)", "setting": "in ethyl acetate, 333.15 K", "value": 0.256}]}]}
